Test results from the Deep4Chem optical property database.
Where “and” joins values, the source holds several entries; their conditions need not be identical. Equal entries are not always repeated. One block for each molecule: values may come before it.

Experiment: solvent given as SMILES

SMILES: CCNc1ccc2c(C(F)(F)F)cc(=O)oc2c1
fluorescence lifetime (in C1CCC2CCCCC2C1): 3.67 ns
fluorescence lifetime (in C1CCCCC1): 3.56 ns
fluorescence lifetime (in CC1CCCCC1): 3.55 ns
fluorescence lifetime (in CC#N): 5.23 ns
fluorescence lifetime (in CC(C)=O): 5.08 ns
fluorescence lifetime (in CC(C)O): 5.14 ns
fluorescence lifetime (in CCC(C)CC): 3.39 ns
fluorescence lifetime (in CCCC(C)C): 3.38 ns
fluorescence lifetime (in CCCCCC): 3.3 ns
fluorescence lifetime (in CCCCCCO): 5.23 ns
fluorescence lifetime (in CCCCO): 5.24 ns
fluorescence lifetime (in CCO): 5.04 ns
fluorescence lifetime (in CCOC(C)=O): 4.83 ns
fluorescence lifetime (in CO): 4.84 ns

SMILES: CCCCCCCCCCCCn1cccc1/C=C/c1cc(OCCCC)c(/C=C/c2cccn2CCCCCCCCCCCC)cc1OCCCC
fluorescence lifetime (in Cc1ccccc1): 1.26 ns

SMILES: COc1ccc(-c2nc(-c3ccc(-c4nc(-c5ccc(OC)cc5)c(-c5ccc(OC)cc5)[nH]4)s3)[nH]c2-c2ccc(OC)cc2)cc1
fluorescence lifetime (in CC#N): 1.42 ns

SMILES: CCCCCCCc1ccc(C2=[N+]3C(=C4c5cc(OCC(CC)CC)c(-c6ccc(CCCCCCC)o6)n5[B-](F)(F)[n+]5c4n(c4cc(C(C)(C)C)ccc45)[B-]3(F)F)C=C2OCC(CC)CC)o1
fluorescence lifetime (in C1CCOC1): 0.4 ns
fluorescence lifetime (in ClCCl): 0.4 ns

SMILES: C=Cc1cc2cc3c(cc2oc1=O)OCO3
fluorescence lifetime (in CC#N): 3.68 ns

SMILES: CCCCCCCCN(CCCCCCCC)c1ccc(/C=C/c2ccc(C#Cc3ccc(-c4ccc(C#Cc5ccc(/C=C/c6ccc(N(CCCCCCCC)CCCCCCCC)cc6)cc5)cc4)cc3)cc2)cc1
fluorescence lifetime (in Cc1ccccc1): 0.4 ns

SMILES: O=Cc1ccc(N(c2ccc(C=O)cc2)c2ccc(-c3ccc4c(c3)C(=O)c3ccccc3C4=O)cc2)cc1
fluorescence lifetime (in C1CCOC1): 2.01 ns
fluorescence lifetime (in CCOC(C)=O): 1.49 ns
fluorescence lifetime (in CCOCC): 6.6 ns
fluorescence lifetime (in Cc1ccccc1): 6.83 ns
fluorescence lifetime (in ClC(Cl)(Cl)Cl): 2.82 ns
fluorescence lifetime (in ClCCl): 0.79 ns

SMILES: O=S(=O)(c1ccc(N(c2ccccc2)c2ccccc2)cc1)c1ccc(N(c2ccccc2)c2ccccc2)cc1
fluorescence lifetime (in Cc1ccccc1): 2.2 ns
fluorescence lifetime (in O=P(c1ccccc1)(c1ccccc1)c1ccccc1Oc1ccccc1P(=O)(c1ccccc1)c1ccccc1): 3.5 ns

SMILES: COc1ccc2c(c1)c1cc(OC)ccc1n2-c1ccc(S(=O)(=O)c2ccc(-n3c4ccc(OC)cc4c4cc(OC)ccc43)cc2)cc1
fluorescence lifetime (in Cc1ccccc1): 11 ns

SMILES: O=C1c2ccc(-c3ccc(N(c4ccc(-c5ccccc5)cc4)c4ccc(-c5ccccc5)cc4)cc3)cc2C(=O)c2ccc(-c3ccc(N(c4ccc(-c5ccccc5)cc4)c4ccc(-c5ccccc5)cc4)cc3)cc21
fluorescence lifetime (in Cc1ccccc1): 11.2 ns
fluorescence lifetime (in c1ccc2c(c1)c1ccccc1n2-c1ccc(-c2ccc(-n3c4ccccc4c4ccccc43)cc2)cc1): 10.2 ns

SMILES: c1cc2ccc3cccc4c(-c5cc(-c6nccs6)nc(-c6nccs6)c5)cc(c1)c2c34
fluorescence lifetime (in CC#N): 2.9 ns
fluorescence lifetime (in CCCCCC): 3.24 ns
fluorescence lifetime (in CO): 3.2 ns
fluorescence lifetime (in ClC(Cl)Cl): 2.41 ns

SMILES: CCOC(=O)C(C(=O)OCC)C1=[N+]2C(=C(c3ccc(C)cc3)c3ccc(C(C(=O)OCC)C(=O)OCC)n3[B-]2(F)F)C=C1
fluorescence lifetime (in C1CCCCC1): 3.15 ns
fluorescence lifetime (in C1CCOC1): 2.82 ns
fluorescence lifetime (in CCOC(C)=O): 2.5 ns
fluorescence lifetime (in CO): 2.18 ns
fluorescence lifetime (in Cc1ccccc1): 4.14 ns
fluorescence lifetime (in ClC(Cl)Cl): 3.62 ns

SMILES: CCCCCCCCCCCCN1C(=O)c2c(c3ccc4cc(-c5ccc(OC)cc5)c(OC)cc4c3c3c2ccc2cc(-c4ccc(OC)cc4)c(OC)cc23)C1=O
fluorescence lifetime (in ClCCl): 6.44 ns

SMILES: Cc1ccc(C2=C3C=CC(c4ccccc4)=[N+]3[B-](F)(F)n3c2ccc3-c2ccccc2)cc1
fluorescence lifetime (in C1CCCCC1): 1.56 ns
fluorescence lifetime (in C1CCOC1): 1.4 ns
fluorescence lifetime (in C1COCCO1): 1.59 ns
fluorescence lifetime (in CCOC(C)=O): 1.37 ns
fluorescence lifetime (in CO): 1.22 ns
fluorescence lifetime (in Cc1ccccc1): 2.17 ns
fluorescence lifetime (in ClC(Cl)Cl): 1.97 ns

SMILES: N#Cc1c(-n2c3ccc(Br)cc3c3cc(Br)ccc32)c(-n2c3ccc(Br)cc3c3cc(Br)ccc32)c(C#N)c(-n2c3ccc(Br)cc3c3cc(Br)ccc32)c1-n1c2ccc(Br)cc2c2cc(Br)ccc21
fluorescence lifetime (in Cc1ccccc1): 0.3 ns

SMILES: CCC1(CC)c2cc(B(c3c(C)cc(C)cc3C)c3c(C)cc(C)cc3C)ccc2-c2c1c1c(c3c2C(CC)(CC)c2cc(N(c4ccccc4)c4ccccc4)ccc2-3)C(CC)(CC)c2cc(N(c3ccccc3)c3ccccc3)ccc2-1
fluorescence lifetime (in C1CCOC1): 14.4 ns

SMILES: Cc1ccc(-c2nc(-c3ccc(-c4nc(-c5ccc(C)cc5)c(-c5ccc(C)cc5)[nH]4)cc3)[nH]c2-c2ccc(C)cc2)cc1
fluorescence lifetime (in CS(C)=O): 1.07 ns

SMILES: CCN(CC)c1ccc(-c2nc3c4ccccc4n(C)c3nc2-c2ccc(B(c3c(C)cc(C)cc3C)c3c(C)cc(C)cc3C)cc2)cc1
fluorescence lifetime (in C1CCOC1): 9.21 ns

SMILES: O=C1CCCc2c1[nH]c1cc3c(cc21)OCO3
fluorescence lifetime (in C1CCOC1): 0.442 ns
fluorescence lifetime (in C1COCCO1): 0.481 ns
fluorescence lifetime (in CC#N): 0.978 ns
fluorescence lifetime (in CCCCCCCCCCCCO): 1.36 ns
fluorescence lifetime (in CCCCCCCCCCO): 1.28 ns
fluorescence lifetime (in CCCCCCCCO): 1.25 ns
fluorescence lifetime (in CCCCCCO): 1.22 ns
fluorescence lifetime (in CCCCO): 1.12 ns
fluorescence lifetime (in CCO): 1.36 ns
fluorescence lifetime (in CCOC(C)=O): 0.476 ns
fluorescence lifetime (in CN(C)C=O): 0.838 ns
fluorescence lifetime (in CO): 1.78 ns
fluorescence lifetime (in CS(C)=O): 1.43 ns
fluorescence lifetime (in O): 2.29 ns
fluorescence lifetime (in c1ccccc1): 0.466 ns

SMILES: O=S(=O)(/N=c1\oc2cccc3c4c(-c5ccccc5)oc5cccc(c(c1-c1ccccc1)c23)c54)C(F)(F)F
fluorescence lifetime (in CCCCCC): 3.8 ns
fluorescence lifetime (in CO): 7.5 ns
fluorescence lifetime (in CS(C)=O): 6.6 ns
fluorescence lifetime (in ClC(Cl)Cl): 5.6 ns
fluorescence lifetime (in ClCCl): 6.2 ns
fluorescence lifetime (in O): 2.3 ns

SMILES: Cc1ccc(C(=O)/N=c2\oc3cccc4c5c(-c6ccccc6)oc6cccc(c(c2-c2ccccc2)c34)c65)cc1
fluorescence lifetime (in ClC(Cl)Cl): 2.1 ns

SMILES: CN(C)c1ccc(/C=C/C=C2\CC/C(=C\c3ccc(N(C)C)cc3)C2=O)cc1
fluorescence lifetime (in C1CCOC1): 0.42 ns
fluorescence lifetime (in CC#N): 0.91 ns
fluorescence lifetime (in CC(C)=O): 1.15 ns
fluorescence lifetime (in CC(C)O): 1.24 ns
fluorescence lifetime (in CCCCO): 1.25 ns
fluorescence lifetime (in CCCCOC(C)=O): 0.63 ns
fluorescence lifetime (in CCCO): 1.13 ns
fluorescence lifetime (in CCO): 0.82 ns
fluorescence lifetime (in CCOC(=O)c1ccccc1): 0.83 ns
fluorescence lifetime (in CCOC(C)=O): 0.71 ns
fluorescence lifetime (in CCOCC): 0.31 ns
fluorescence lifetime (in CN(C)C=O): 1.32 ns
fluorescence lifetime (in CO): 0.3 ns
fluorescence lifetime (in CS(C)=O): 1.4 ns
fluorescence lifetime (in Cc1ccccc1): 0.36 ns
fluorescence lifetime (in ClC(Cl)(Cl)Cl): 0.29 ns
fluorescence lifetime (in ClC(Cl)Cl): 0.98 ns
fluorescence lifetime (in ClCCl): 1.13 ns
fluorescence lifetime (in Clc1ccccc1Cl): 0.83 ns
fluorescence lifetime (in S=C=S): 0.43 ns
fluorescence lifetime (in c1ccccc1): 0.38 ns
fluorescence lifetime (in c1ccncc1): 1.26 ns

SMILES: COc1ccc(-c2cc(-c3ccc(OC)cc3)c3c(N)nc(N4CCCC4)c(C#N)c3n2)cc1
fluorescence lifetime (in CC#N): 11.6 ns
fluorescence lifetime (in CC(C)=O): 10 ns
fluorescence lifetime (in CC(C)O): 11.6 ns
fluorescence lifetime (in CO): 10.3 ns
fluorescence lifetime (in ClC(Cl)Cl): 11.6 ns
fluorescence lifetime (in ClCCl): 13.2 ns
fluorescence lifetime (in c1ccccc1): 12 ns

SMILES: N#Cc1c(-n2c3ccccc3c3cc(I)ccc32)c(C#N)c(-n2c3ccccc3c3cc(I)ccc32)c(-n2c3ccccc3c3cc(I)ccc32)c1-n1c2ccccc2c2cc(I)ccc21
fluorescence lifetime (in Cc1ccccc1): 0.4 ns

SMILES: CCN(CC)c1cc2oc(=O)cc(C)c2cc1C
fluorescence lifetime (in CCO): 2.56 ns

SMILES: CC(=O)O[B-]1(OC(C)=O)OC(/C=C/C=C/c2ccccc2)=CC(/C=C/C=C/c2ccccc2)=[O+]1
fluorescence lifetime (in C1CCOC1): 2.38 ns
fluorescence lifetime (in CC#N): 1.81 ns
fluorescence lifetime (in CC(C)=O): 1.77 ns
fluorescence lifetime (in CS(C)=O): 2.03 ns
fluorescence lifetime (in Cc1ccccc1): 2.57 ns
fluorescence lifetime (in ClC(Cl)Cl): 1.93 ns
fluorescence lifetime (in ClCCl): 1.84 ns

Other lines, results leading:

fluorescence lifetime (in C1CCCCC1): 8 ns
fluorescence lifetime (in CC#N): 4.2 ns
fluorescence lifetime (in c1ccccc1): 10 ns
SMILES: CN(C)c1cccc2c1-c1ccccc1C2=O

fluorescence lifetime (in ClCCl): 1.51 ns
SMILES: COc1ccc(-c2cc3c(s2)c(C(C)=O)cc(=O)n3C)cc1

fluorescence lifetime (in ClC(Cl)Cl): 1.4 ns
SMILES: N#CCc1ccccc1-c1cc2ccccc2oc1=O

fluorescence lifetime (in ClCCl): 7.8 ns
SMILES: COc1ccc(-c2c3cc4ccccc4cc3c(-c3ccc(OC)cc3)c3cc4ccccc4cc23)cc1

fluorescence lifetime (in C1CCOC1): 25.6 ns
fluorescence lifetime (in CO): 28.2 ns
SMILES: CCOC(=O)C1=CN(Cc2ccccc2)C=C(C(=O)OCC)C1

fluorescence lifetime (in ClCCl): 2.64 ns
SMILES: COC(=O)c1cc(=O)n(C)c2cc(-c3cccc(N(C)C)c3)sc12

fluorescence lifetime (in ClCCl): 0.42 ns
SMILES: CCCCC(CC)COc1ccc2nc(-c3ccc(-c4cccs4)s3)sc2c1 (centres undefined)

fluorescence lifetime (in CC#N): 1.85 ns
fluorescence lifetime (in CO): 1.75 ns
fluorescence lifetime (in O): 2.04 ns
SMILES: CN(C)CCCN1c2ccccc2Sc2ccccc21

fluorescence lifetime (in ClCCl): 5.3 ns
SMILES: COc1ccc(C#Cc2c3ccccc3c(C#Cc3ccc(OC)cc3)c3cc4sc(C)cc4cc23)cc1

fluorescence lifetime (in CN(C)C=O): 2.8 ns
SMILES: O=C1NC(=O)c2ccc3c4ccc5c6c(ccc(c7ccc1c2c73)c64)C(=O)N(c1ccc(O)cc1)C5=O

fluorescence lifetime (in ClC(Cl)Cl): 7.63 ns
SMILES: CC[Si](CC)(CC)c1cc2ccc3cccc4ccc(c1C(=O)NC(C)(C)C)c2c34

fluorescence lifetime (in ClCCl): 4.53 ns
SMILES: COc1cc(OC)cc(C2=[O+][B-](F)(F)OC(c3cccs3)=C2)c1

fluorescence lifetime (in ClCCl): 2.19 ns
SMILES: Nc1cccc2c1ccc1[n+]2[B-](F)(F)n2c-1cc1c3ccccc3c3ccccc3c12

fluorescence lifetime (in C1CCCCC1): 0.1 ns and 0.13 ns
fluorescence lifetime (in CC#N): 0.1 ns and 0.13 ns
SMILES: CN(C)c1ccc(/C=C/c2nc3c(ccc4ccccc43)s2)cc1

fluorescence lifetime (in ClCCl): 4.77 ns
SMILES: Cn1c(=O)cc(C(=O)c2ccccc2)c2sc(-c3ccc(OC(F)(F)F)cc3)cc21

fluorescence lifetime (in C1CCCCC1): 6.1 ns
fluorescence lifetime (in CC#N): 4.8 ns
fluorescence lifetime (in c1ccccc1): 11 ns
SMILES: CN(C)c1ccc2c(c1)-c1ccccc1C2=O

fluorescence lifetime (in CC#N): 0.39 ns
SMILES: C=Cc1cc2ccccc2oc1=O

fluorescence lifetime (in CC1CCCCC1): 1.25 ns
fluorescence lifetime (in CC#N): 1.24 ns
fluorescence lifetime (in CO): 1.32 ns
SMILES: COC(=O)C(NC(=O)OC(C)(C)C)c1ccc2oc(-c3ccc(N(C)C)cc3OC)nc2c1 (centres undefined)

fluorescence lifetime (in O): 10.9 ns
SMILES: CCOC(=O)CCCCCn1c2ccccc2c(=O)c2cc(N)ccc21

fluorescence lifetime (in C1COCCO1): 0.023 ns
fluorescence lifetime (in CC#N): 0.044 ns
fluorescence lifetime (in CCO): 0.08 ns
fluorescence lifetime (in OCC(F)(F)F): 0.13 ns
SMILES: Cc1cc(=O)oc2c1cc(Br)c1occ(C)c12

fluorescence lifetime (in CCCCCC): 21 ns
SMILES: COC(=O)c1c(C(=O)OC)c2ccc(-c3ccccc3)nn2c1C

fluorescence lifetime (in CCO): 20 ns
SMILES: c1ccc2cc3cnccc3cc2c1

fluorescence lifetime (in CCCCCC): 17.4 ns
SMILES: CCOC(=O)c1cc(C)n2nc(-c3ccccc3)ccc12
